According to patent US20210079384A1, “NON-INVASIVE DETECTION OF RESPONSE TO A TARGETED THERAPY” (The Johns Hopkins University, priority 2018, published 2021):

Legend:
[1] = system: advanced non-small cell lung cancer (NSCLC) patients; experiment: Progression-free survival by RECIST 1.1 CT assessment in NSCLC patients on TKI therapy; format: in vivo, human; details: single patient CGPLLU2 with metastatic disease; osimertinib 80 mg PO daily; subsequently developed resistance in the primary lung lesion
Description: (§1) Serial blood was drawn from fifteen advanced non-small cell lung cancer (NSCLC) patients undergoing treatment with targeted tyrosine kinase inhibitors (TKIs), afatinib or osimertinib, to directly detect somatic sequence and structural alterations in cfDNA, to monitor ctDNA dynamics during therapy, to determine cell-free tumor burden, and to predict clinical outcome (FIG. 1). Liquid biopsies were obtained from 11 radiographic responders and four radiographic non-responders immediately prior to treatment (baseline), 6-22 days post treatment, and at serial time points until disease progression. The ultrasensitive targeted error correction sequencing (TEC-Seq) approach (6) was used as well as whole genome sequencing to identify tumor-derived sequence alterations and chromosomal copy number changes in cell-free DNA (cfDNA). […] Next, changes in cfTL were evaluated within hours to days after treatment compared to baseline and assessed whether cfTL could serve as a marker of patient outcome.
For each patient, ˜5 ml of plasma were collected immediately prior to therapy (baseline), at 6-22 days after therapy initiation (median 16 days), and at additional serial time points until disease progression was confirmed by radiographic assessment (Tables S1 and S2). Target lesions were evaluated before therapy with CT/MRI imaging and approximately every six weeks until disease progression. […]

[2] = system: advanced non-small cell lung cancer (NSCLC) patients; experiment: Cell-free tumor load (cfTL) in plasma cfDNA by TEC-Seq during TKI therapy; format: in vivo, human; details: single patient CGPLLU2 with metastatic disease; osimertinib 80 mg PO daily
Description: as §1, with “progression.” for “progression. The ultrasensitive targeted error correction sequencing (TEC-Seq) approach (6) was used as well as whole genome sequencing to identify tumor-derived sequence alterations and chromosomal copy number changes in cell-free DNA (cfDNA).”, “outcome. […]” for “outcome.”
For all patients, serial blood draws were collected over the course of treatment with targeted inhibition for isolation of plasma and extraction of cell-free DNA (cfDNA) for genomic analyses. Time points were analyzed immediately prior to treatment for baseline assessment as well as 6-22 days post treatment and at serial time points until disease progression (Table S2).
Sequence and copy number alterations were detected in cfDNA for each patient at each time point analyzed and used a tiered approach to evaluate tumor burden. […]

`C=CC(=O)Nc1cc(Nc2nccc(-c3cn(C)c4ccccc34)n2)c(OC)cc1N(C)CCN(C)C` [osimertinib] was tested, and the progression-free survival [1] was 7.0 months and the “change of cfTL from baseline to day 10” value [2] was “rapid decline”.
